Experimental findings from paper PMC10632405, “A novel in silico scaffold-hopping method for drug repositioning in rare and intractable diseases” (Scientific Reports, 2023) are described below.

The test concerns the target PAK5 (Homo sapiens, UniProt Q9P286). As to conditions: read-out: % inhibition at 50 nM.

PAK5, sequence (Q9P286 whole entry): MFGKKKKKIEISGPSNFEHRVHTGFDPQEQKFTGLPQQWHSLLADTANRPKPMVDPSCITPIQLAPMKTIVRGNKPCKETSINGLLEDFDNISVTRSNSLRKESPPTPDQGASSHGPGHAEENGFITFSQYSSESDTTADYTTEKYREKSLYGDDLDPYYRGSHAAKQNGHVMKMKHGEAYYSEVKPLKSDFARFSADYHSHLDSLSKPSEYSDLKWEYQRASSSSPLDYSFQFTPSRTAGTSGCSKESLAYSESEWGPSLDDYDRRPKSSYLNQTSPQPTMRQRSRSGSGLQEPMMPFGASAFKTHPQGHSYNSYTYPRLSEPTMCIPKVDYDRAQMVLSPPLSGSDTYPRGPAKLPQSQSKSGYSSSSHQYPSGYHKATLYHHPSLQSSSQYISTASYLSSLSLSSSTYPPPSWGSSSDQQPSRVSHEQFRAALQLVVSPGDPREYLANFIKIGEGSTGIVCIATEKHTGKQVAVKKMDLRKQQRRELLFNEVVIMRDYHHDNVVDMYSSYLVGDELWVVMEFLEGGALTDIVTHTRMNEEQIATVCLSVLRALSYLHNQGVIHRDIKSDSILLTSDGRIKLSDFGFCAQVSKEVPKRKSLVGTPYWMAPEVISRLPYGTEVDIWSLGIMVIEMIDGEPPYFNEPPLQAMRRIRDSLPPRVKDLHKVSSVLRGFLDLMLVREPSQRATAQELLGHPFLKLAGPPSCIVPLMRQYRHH

Take `NC(=O)c1cnc(N[C@@H]2CCCC[C@@H]2N)nc1Nc1cccc(-n2nccn2)c1` [BIIB-057]: the inhibition at 0.05 µM is over 50%.

What is called inhibition is the share of the control response that was lost under treatment.
